Measurements published in patent publication EP0237929B1, “3,5-Disubstituted pyrocatechol derivatives” (F. HOFFMANN-LA ROCHE AG, priority 1986, dated 1987).

What was measured:
[1] = Acute toxicity after a single oral administration to mice; conditions: mouse, in vivo, p.o., read-out: DL₅₀
[2] = target: T1, Catechol-O-Methyl-Transferase (COMT) (Rattus norvegicus, UniProt P22734); assay: COMT inhibition in rat liver homogenates; format: biochemical, Ratten
T1 construct: Man inkubiert Rattenleber-Homogenate in Gegenwart eines geeigneten Substrates; from tissue; host or cells: rat liver homogenate
T1 sequence (P22734 1-264): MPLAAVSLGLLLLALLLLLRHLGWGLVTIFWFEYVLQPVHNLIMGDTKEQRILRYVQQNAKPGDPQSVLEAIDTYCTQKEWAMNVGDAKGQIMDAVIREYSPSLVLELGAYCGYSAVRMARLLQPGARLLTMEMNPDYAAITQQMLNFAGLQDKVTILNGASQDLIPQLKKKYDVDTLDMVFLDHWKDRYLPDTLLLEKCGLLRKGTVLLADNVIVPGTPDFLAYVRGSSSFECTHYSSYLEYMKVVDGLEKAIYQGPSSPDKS
Source text: Diese Wirkung kann wie folgt quantitativ erfasst werden: Man inkubiert Rattenleber-Homogenate in Gegenwart eines geeigneten Substrates wie in J. Neurochem. […] In einer zweiten Versuchsreihe wird die Inkubation in Gegenwart einer Verbindung der Formel Ia durchgeführt. Aus der Differenz der ermittelten COMT-Aktivitäten lässt sich dann die IC₅₀ berechnen. Die IC₅₀ wird in nMol/l angegeben und ist diejenige Konzentration in der Inkubationsmischung, welche notwendig ist, um die COMT-Aktivität um 50% herabzusetzen.

Structure (SMILES) | LD50 [1] [mg/kg] | IC50 [2] [nM]
CCCCOC(=O)c1cc(O)c(O)c([N+](=O)[O-])c1 [3,4-Dihydroxy-5-nitrobenzoesäure-n-butylester] | 312 to 625 | 20
O=[N+]([O-])c1cc(O)c(O)c([N+](=O)[O-])c1 [3,5-Dinitropyrocatechol] | 500 to 1000 | 
O=C(c1cccnc1)c1cc(O)c(O)c([N+](=O)[O-])c1 [3,4-Dihydroxy-5-nitrophenyl-3-pyridylketon] | 1000 to 2000 | 47
O=C(c1cc(O)c(O)c([N+](=O)[O-])c1)c1ccccn1 [3,4-Dihydroxy-5-nitrophenyl-2-pyridylketon] | 1250 to 2500 | 53.4
O=C(c1ccccc1)c1cc(O)c(O)c([N+](=O)[O-])c1 [3,4-Dihydroxy-5-nitrobenzophenon] | 500 to 1000 | 48
CCOC(=O)C(=O)c1cc(O)c(O)c([N+](=O)[O-])c1 [3,4-Dihydroxy-5-nitrophenylglyoxylsäureäthylester] | 1250 to 2500 | 48.1
O=C(c1cc(O)c(O)c([N+](=O)[O-])c1)c1ccccc1F [2'-Fluor-3,4-dihydroxy-5-nitrobenzophenon] | 312 to 625 | 42
O=C(c1ccncc1)c1cc(O)c(O)c([N+](=O)[O-])c1 [3,4-Dihydroxy-5-nitrophenyl-4-pyridylketon] | 1000 to 2000 | 67
CCCCOC(=O)C=Cc1cc(O)c(O)c([N+](=O)[O-])c1 [3,4-Dihydroxy-5-nitrozimtsäure-n-butylester] | 2500 to 5000 | 25.9
